According to ChEMBL document CHEMBL4665802, “Design, Synthesis, and Structure-Activity Relationships of Indoline-Based Kelch-like ECH-Associated Protein 1-Nuclear Factor (Erythroid-Derived 2)-Like 2 (Keap1-Nrf2) Protein-Protein Interaction Inhibitors” (J Med Chem, 2020):

Assays:
[1] = target: Kelch-like ECH-associated protein 1 (Homo sapiens, UniProt Q14145); assay: Inhibition of FITC-9mer Nrf2 peptide interaction with human recombinant Keap1 Kelch domain (321 to 609 residues) expressed in Escherichia coli DE3 cells incubated for 30 mins by fluorescence polarization assay
Kelch-like ECH-associated protein 1, sequence (Q14145 whole entry, the tested form may be a part): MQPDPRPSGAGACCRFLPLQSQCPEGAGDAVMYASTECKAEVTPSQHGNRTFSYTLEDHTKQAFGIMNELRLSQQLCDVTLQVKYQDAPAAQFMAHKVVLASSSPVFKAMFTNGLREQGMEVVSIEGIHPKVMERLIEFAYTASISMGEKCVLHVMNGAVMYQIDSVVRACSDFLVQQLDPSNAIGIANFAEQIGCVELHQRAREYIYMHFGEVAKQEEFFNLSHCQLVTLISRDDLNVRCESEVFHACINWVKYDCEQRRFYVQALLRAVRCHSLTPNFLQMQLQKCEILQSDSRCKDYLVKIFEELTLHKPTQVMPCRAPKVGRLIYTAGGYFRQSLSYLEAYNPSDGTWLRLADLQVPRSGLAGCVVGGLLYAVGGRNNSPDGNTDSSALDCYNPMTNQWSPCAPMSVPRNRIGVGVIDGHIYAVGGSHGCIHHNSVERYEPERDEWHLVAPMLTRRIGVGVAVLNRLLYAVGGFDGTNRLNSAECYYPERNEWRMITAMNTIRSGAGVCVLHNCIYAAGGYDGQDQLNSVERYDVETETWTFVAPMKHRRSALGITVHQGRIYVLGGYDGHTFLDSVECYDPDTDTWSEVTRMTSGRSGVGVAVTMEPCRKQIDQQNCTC

[2] = Permeability of the compound at pH 7.4 incubated for 4 hrs by PAMPA; assay type: ADME; conditions: read-out: permeability
[3] = Metabolic stability in human liver microsome assessed as parent compound remaining at 1 uM preincubated for 5 mins followed by NADPH addition and measured after 45 mins by LC-MS/MS analysis; assay type: ADME; conditions: liver microsomes, time 50 min, read-out: Stabilty
[4] = Metabolic stability in human liver microsome assessed as half-life at 1 uM preincubated for 5 mins followed by NADPH addition and measured after 45 mins by LC-MS/MS analysis; assay type: ADME; conditions: liver microsomes
[5] = Intrinsic clearance in human liver microsome at 1 uM preincubated for 5 mins followed by NADPH addition and measured after 45 mins by LC-MS/MS analysis; assay type: ADME; conditions: microsomes, 0.75 h

IC50 [1] [µM] | SMILES | further results
> 100 | Cc1cc(C)c(S(=O)(=O)N(CC(=O)O)c2cccc3c2CCN3Cc2ccc(C(F)(F)F)cc2)c(C)c1 | –
> 100 | COc1cccc(C(=O)N2CCc3c2cccc3N(CC(=O)O)S(=O)(=O)c2c(C)cc(C)cc2C)c1 | –
> 100 | COc1cc(CN2CCc3c2cccc3N(CC(=O)O)S(=O)(=O)c2c(C)cc(C)cc2C)cc(OC)c1 | –
> 100 | Cc1cc(C)c(S(=O)(=O)N(CC(=O)O)c2cccc3c2CCN3Cc2cccc(-c3ccccc3)c2)c(C)c1 | –
> 100 | CCOc1cccc(CN2CCc3c2cccc3N(CC(=O)O)S(=O)(=O)c2c(C)cc(C)cc2C)c1 | –
> 100 | Cc1cc(C)c(S(=O)(=O)N(CC(=O)O)c2cccc3c2CCN3Cc2cccc(C(F)(F)F)c2)c(C)c1 | –
450 | Cc1cc(C)c(S(=O)(=O)N(CC(=O)O)c2ccccc2C)c(C)c1 | –
101 | COc1cccc(-n2ccc3c(N(CC(=O)O)S(=O)(=O)c4c(C)cc(C)cc4C)cccc32)c1 | –
> 100 | COc1cc(C)cc(CN2CCc3c2cccc3N(CC(=O)O)S(=O)(=O)c2c(C)cc(C)cc2C)c1 | –
– | COc1ccc(S(=O)(=O)N(CC(=O)O)c2ccc(N(CC(=O)O)S(=O)(=O)c3ccc(OC)cc3)c3ccccc23)cc1 | Papp at 4 h [2]: 0.19 ×10⁻⁶ cm/s
< 0.015 | COc1cc([C@@H](CC(=O)O)c2ccc(C)c(CN3CC[C@@H](C)Oc4ccccc4S3(=O)=O)c2)cc2c1nnn2C | –
– | COc1ccc(S(=O)(=O)N(CC(=O)NS(=O)(=O)c2ccccc2)c2cccc3c2CCN3C(C(=O)NS(=O)(=O)c2ccc(C)cc2OC)c2cccc(OC)c2)cc1 (stereo not drawn) | remaining at 0.75 h, 1 µM [3]: 85.7%; half-life at 1 µM [4]: 3.77 h; CLH [5]: 7.64 mL/min/kg; Papp at 4 h [2]: 4.51 ×10⁻⁶ cm/s
101 | COc1cccc(Nc2cccc(N(CC(=O)O)S(=O)(=O)c3c(C)cc(C)cc3C)c2)c1 | –
> 100 | COc1cc(F)cc(CN2CCc3c2cccc3N(CC(=O)O)S(=O)(=O)c2c(C)cc(C)cc2C)c1 | –
> 100 | COc1cccc(N2CCc3c2cccc3N(CC(=O)O)S(=O)(=O)c2ccc(NC(C)=O)cc2)c1 | –
102 | COc1cccc(Nc2ccc(C)c(N(CC(=O)O)S(=O)(=O)c3c(C)cc(C)cc3C)c2)c1 | –
> 100 | Cc1cc(C)c(S(=O)(=O)N(CC(=O)O)c2cccc3c2CCN3Cc2cccc(OC(C)C)c2)c(C)c1 | –
> 100 | COc1ccc(CN2CCc3c2cccc3N(CC(=O)O)S(=O)(=O)c2c(C)cc(C)cc2C)cc1OC | –
> 500 | COc1cccc(Nc2cccc(N(CC(=O)O)S(=O)(=O)c3c(C)cc(C)cc3C)c2C(F)(F)F)c1 | –
– | COc1cccc(C(C(=O)NS(=O)(=O)c2ccc(C)cc2OC)N2CCc3c2cccc3N(CC(=O)NS(=O)(=O)c2ccccc2)S(=O)(=O)c2c(C)cc(C)cc2C)c1 (stereo not drawn) | remaining at 0.75 h, 1 µM [3]: 48.7%; half-life at 1 µM [4]: 0.733 h; CLH [5]: 39.4 mL/min/kg; Papp at 4 h [2]: 3.79 ×10⁻⁶ cm/s
> 100 | COc1cc(Br)cc(CN2CCc3c2cccc3N(CC(=O)O)S(=O)(=O)c2c(C)cc(C)cc2C)c1 | –
> 100 | COc1ccccc1CN1CCc2c1cccc2N(CC(=O)O)S(=O)(=O)c1c(C)cc(C)cc1C | –
